Read-outs that look alike come from different tables or passages of the source.
Legend:
[1] = rat, tissue homogenate
[2] = rat, plasma, Fraction unbound in plasma, fu,plasma, undiluted rat plasma, 1 µM, equilibrium dialysis 6 h 37 °C
Procedure: (§1) Peptide binding to plasma proteins, brain tissue homogenate, and lung tissue homogenate as well as to neuronal and astrocyte cell culture homogenates was investigated using equilibrium dialysis [47]. Undiluted plasma and brain from three peptide-naïve rats were used in the experiment. The brain homogenate was prepared by homogenizing 1 part brain with 4 parts of phosphate-buffered saline (PBS, pH 7.4). […] Semi-permeable membranes with a molecular weight cut-off of 12–14 kDa were used and placed in an HTD96b apparatus (HTDialysis, Gales Ferry, CT, USA). The undiluted plasma and respective homogenates were spiked with individual peptide to a concentration of 1 µM and were dialyzed against PBS (pH 7.4). Five technical replicates were prepared per biological replicate. The experiment was run for 6 h at 37 °C in a MaxQ4450 shaker (Thermo Fisher Scientific, NinoLab, Sweden) at 200 rpm. […] Aliquots (80 µL) were taken from the buffer and plasma/homogenate sides. To compensate for any differences in matrix during bioanalysis, the plasma and homogenate samples were mixed with equal volumes of blank buffer, and the buffer samples were mixed with an equal volume of relevant blank plasma/homogenate. Spiked plasma and respective homogenate samples were incubated to control for relative recovery and thermal stability of the peptides in respective matrices.
(§2) The unbound fraction in undiluted plasma was calculated using Equation (5), where Cbuffer is the unbound concentration of peptide in the buffer and Cplasma is the total concentration of peptide in plasma at 6 h. The binding of peptide in various homogenates was assessed in two steps. First, the fraction of unbound peptide in the diluted homogenate, fu,h,D, was calculated using Equation (6), where Chomogenate is the total concentration of peptide in respective homogenate at 6 h. Second, the correction for the dilution was implemented as described in Equation (7), where D is the dilution factor used in the preparation [47]. D was 5 for brain and lung homogenates and on average 35.3 for the cell culture studies, as determined based on the total protein content and the total volume of lysate. (5) fu,plasma=Cbuffer/Cplasma (6) fu,h,D=Cbuffer/Chomogenate (7) fu,tissue/cell=1/D/((1/fu,h,D )−1)+1/D

in vitro = details: rat, undiluted plasma, pH 7.4, Fraction unbound in plasma, fu,plasma, equilibrium dialysis 6 h 37 °C
Procedure: as §1, §2

Work on `CC(C)C[C@@H]1NC(=O)CNC(=O)[C@H](CC(N)=O)NC(=O)[C@H](CCCNC(=N)N)NC(=O)[C@H]([C@@H](C)O)NC(=O)[C@@H]2CSSC[C@@H]3NC(=O)[C@H]([C@@H](C)O)NC(=O)CNC(=O)CNC(=O)[C@H](C(C)C)NC(=O)[C@@H]4CSSC[C@H](NC(=O)[C@H]([C@@H](C)O)NC(=O)[C@H](CSSC[C@H](NC(=O)[C@H](C(C)C)NC(=O)[C@@H]5CCCN5C1=O)C(=O)NCC(=O)N[C@@H](CCC(=O)O)C(=O)N[C@@H]([C@@H](C)O)C(=O)N4)NC(=O)CNC(=O)[C@@H]1CCCN1C(=O)[C@H]([C@@H](C)O)NC(=O)[C@H](CC(N)=O)NC3=O)C(=O)N[C@@H](CO)C(=O)N[C@@H](Cc1c[nH]c3ccccc13)C(=O)N1CCC[C@H]1C(=O)N[C@@H](C(C)C)C(=O)N2` [Kalata B1] yielded a fraction unbound [1] of 0.0377 ± 0.0079 and a fraction unbound [2] of 0.3.
With `CC[C@H](C)[C@@H]1NC(=O)[C@@H]2CCCN2C(=O)[C@@H]2CCCN2C(=O)[C@H]([C@@H](C)CC)NC(=O)[C@H](CO)NC(=O)[C@H](CCCCN)NC(=O)[C@H]([C@@H](C)O)NC(=O)[C@@H]2CSSC[C@H](NC1=O)C(=O)N[C@@H](Cc1ccccc1)C(=O)N1CCC[C@H]1C(=O)N[C@@H](CC(=O)O)C(=O)NCC(=O)N[C@@H](CCCNC(=N)N)C(=O)N2` [SFTI-1, sunflower trypsin inhibitor-1] the fraction unbound at 6 h, 1 µM (in vitro) was 0.94.

Source: article PMC10222203 (Pharmaceutics, 2023)
